Series [1] has as its system PKM2, EGFR, Stat3, β-catenin in PC-9 cells. The series is described as follows: Immunoblot analysis of oncogenic effectors in PC-9 cells. It counts as cell-based, human. The following applies: Western blot, 24 hours. The method, then: Immunoblot analysis. PC-9 cells were seeded into 6 cm dish at a concentration of 5×10^5 cells/mL. After 24 hours, cells were treated with 0-1 μM compound 1 or DMSO alone for 24 hours. The cells were harvested at 24 hours, and protein extractions were carried out. The protein lysate was subjected to 10% SDS-PAGE and transferred to a nitrocellulose membrane (GE Healthcare Life Sciences). Protein expression was analyzed by Western blotting using primary antibodies against PKM2, EGFR, p-STAT3, STAT3, p-β-catenin (Cell Signaling Technology), β-catenin (Santa Cruz Biotechnology) and β-actin (Sigma-Aldrich), followed by incubation with horseradish peroxidase-conjugated secondary (Jackson ImmunoResearch Laboratories). Specific proteins were detected by chemiluminescence using ECL Plus Western Blotting Detection Reagents (GE Healthcare Biosciences).
(A western blot detects proteins with antibodies after separation by electrophoresis.)

Series [2] addresses PKM2 (Homo sapiens, UniProt P14618). The series is described as follows: Recombinant PKM2 kinase activity assay. Type of series: biochemical. Set-up: purchased Sigma-Aldrich SAE0021. The following applies: after 20 min of exposure. The method, then:
As this cell-based kinase assay could not rule out the involvement of PKM1, we examined the abilities of compound 1 to inhibit the kinase activity of recombinant PKM2 (SAE0021, Sigma-Aldrich) versus recombinant PKM1 (SRP0415, Sigma-Aldrich) using a commercial PKM assay kit. […] In brief, PC-9 cells were exposed to different concentrations of compound 2 in the presence of compound 1 (1 μM) for 1 hour, lysed, and the cell lysates were treated with biotin-azide, followed by streptavidin bead pulldown under the aforementioned conditions. […] The antigen of compound 1 was prepared by coupling this small molecule with cysteine residues of ovalbumin, which was then used for immunization in guinea pigs.
Pyruvate kinase activity assays. PC-9 cells were seeded into 6 cm dishes at a concentration of 5×10^5 cells/mL. After 24 hours, cells were treated with 0.25 μM compound 1 or DMSO for 6 hours. The pyruvate kinase activity of compound 1-treated PC-9 and vehicle control cells was measured by using a commercial colorimetric assay kit from BioVision (Milpitas, Calif., USA) according to the manufacturer's protocol. In addition, to verify the specificity of compound 1 toward PKM2 versus PKM1, the inhibition of the kinase activity of recombinant PKM1 (SRP0415, Sigma-Aldrich) and recombinant PKM2 (SAE0021, Sigma-Aldrich) by compound 1 was conducted using the aforementioned assay kit.

Series [3] concerns MDA-MB-231 breast cancer cells. The series is described as follows: MTT cell viability assay, MDA-MB-231. It counts as cell-based. The following applies: Homo sapiens; MDA-MB-231, MTT, 24 hours. From the text:
(§1) Cell lines, cell culture, biochemical reagents, and antibodies. MiaPaCa-2, AsPC-1, and Panc-1 human pancreatic cancer cells, MCF-7 and MDA-MB-231 breast cancer cells, SCC4 and SCC2059 oral cancer cells, PC-3 and LNCaP prostate cancer cells, H157, H460, H1975, PC-9 and H1650 lung cancer cells were obtained from the American Type Culture Collection (ATCC, Manassas, Va.). All these cells were maintained in recommended growth medium (RPMI 1640 or DMEM) supplemented with 10% fetal bovine serum (FBS) (Invitrogen, Carlsbad, Calif., USA) and antibiotics at 37° C. in a humidified incubator containing 5% CO2. For SILAC experiments, PC-9 cells were grown in SILAC DMEM medium (Thermo Fisher) supplemented with 10% dialyzed FBS and 100 μg/mL each of unlabeled L-arginine and L-lysine (light medium) or ^13C/^15N stable isotope-labeled L-arginine and L-lysine (heavy medium). […]
(§2) Cell viability assays. Drug effects on cell viability was assessed by 3-(4,5-dimethylthiazol-2-yl)-2,5-diphenyltetrazolium bromide ([…]) assays. […] The medium was then removed from each well and replaced with DMSO to dissolve the reduced MTT dye for subsequent colorimetric measurement of absorbance at 560 nm. Cell viabilities are expressed as percentages of viable cells relative to the corresponding vehicle-treated control group.

Series [4] concerns H460 lung cancer cells. The series is described as follows: MTT cell viability assay, H460. It counts as cell-based. Conditions: Homo sapiens, NCI-H460, H460 (wild type EGFR), 24 hours.
Description: as §1, §2
(Tetrazolium assays rely on reduction of a dye to a coloured formazan, in cell work by metabolically active cells.)

Series [5] deals with H157 lung cancer cells. The series is described as follows: MTT cell viability assay, H157. It counts as cell-based. Conditions: Homo sapiens, NCI-H157, H157 (wild type EGFR), 24 hours.
Description: as §1, §2

For series [6], the system named is PC-9 xenograft tumors. Briefly: PC-9 xenograft tumor model in nude mice. The following applies: 10 mg/kg once daily i.p., 25 days. Type of series: in vivo. Here is the method:
Pursuant to the above in vitro findings, we evaluated the in vivo tumor-suppressive efficacy of compound 1 in an ectopic PC-9 xenograft tumor model. Athymic nude mice bearing established subcutaneous PC-9 tumors were randomly divided into two groups (n=8 for each group; initial tumor volume: vehicle, 50±11 mm^3; compound 1, 53±6 mm^3), and were treated once daily with compound 1 at 10 mg/kg or vehicle via intraperitoneal injection.
In vivo efficacy study. Athymic nude mice were purchased from the National Laboratory Animal Center (Taipei, Taiwan). To assess the effect of compound 1 on tumor growth in vivo, 1×10^6 PC-9 cells were mixed with Matrigel (BD Biosciences) at a 1:1 ratio and subcutaneously implanted into nude mice (6-week-old, female; a total of 16 mice). After 7 days, mice were treated with once daily vehicle or 10 mg/kg compound 1 in sterile water containing 0.5% methylcellulose (w/v)+0.1% Tween-80 (v/v) (n=8 for each group). Tumors were measured with calipers and volumes were calculated using V=(width^2×length)×0.52. On day 25, tumors were excised and weighed. Tumor specimens were collected, and expression of target proteins in tumor lysates were analyzed by Western blotting, which were quantified by ImageJ. according to a published online procedure. (https://openwetware.org/wiki/Protein_Quantification_Using_ImageJ).

Chain of PKM2 (P14618 whole entry): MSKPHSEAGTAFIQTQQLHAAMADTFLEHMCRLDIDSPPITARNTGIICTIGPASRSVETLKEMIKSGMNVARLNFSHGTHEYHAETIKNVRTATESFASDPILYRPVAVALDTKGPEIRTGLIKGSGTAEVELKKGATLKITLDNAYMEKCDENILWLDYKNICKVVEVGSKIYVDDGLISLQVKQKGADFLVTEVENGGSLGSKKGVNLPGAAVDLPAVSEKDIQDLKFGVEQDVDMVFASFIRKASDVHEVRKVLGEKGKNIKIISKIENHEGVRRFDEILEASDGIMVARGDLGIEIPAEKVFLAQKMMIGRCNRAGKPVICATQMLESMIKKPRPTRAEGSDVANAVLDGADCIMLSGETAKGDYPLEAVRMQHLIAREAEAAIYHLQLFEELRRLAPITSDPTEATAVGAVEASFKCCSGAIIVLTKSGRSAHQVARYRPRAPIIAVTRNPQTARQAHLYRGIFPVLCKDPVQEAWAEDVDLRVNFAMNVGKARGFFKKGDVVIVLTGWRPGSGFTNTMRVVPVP

Take `C#CC(=O)Nc1ccc(-n2nc(CCC(=O)NC)cc2-c2ccc(-c3ccc(C(F)(F)F)cc3)cc2)cc1` [compound 1, N-(4-(3-(3-(Methylamino)-3-oxopropyl)-5-(4′-(trifluoromethyl)-[1,1′-biphenyl]-4-yl)-1H-pyrazol-1-yl)phenyl)propiolamide]: the “expression and/or phosphorylation of PKM2, EGFR, Stat3, β-catenin” value in series [1] was “downregulated the expression of PKM2 and EGFR, accompanied by parallel decreases in the phosphorylation and expression of Stat3 and β-catenin”. In series [2], the “inhibition of kinase activity of recombinant PKM2” value is “suppress the kinase activity of PKM2”. For the same compound, the IC50 (usually the concentration needed to halve the response being measured) in series [3] was 0.1 µM; in series [4], 1.5 µM; in series [5] it was more than 2 µM. The “expression of PKM2 and binding partners in tumor lysates” value in series [6] (Western blot) is “significant suppression of the expression of PKM2 and its binding partners EGFR, Stat3, and β-catenin”. For the same compound, the body weight loss result in series [6] (relative to control) is “No appreciable weight loss”. Further, the “tumor growth (tumor volume and tumor weight)” value in series [6] (relative to vehicle) was “significantly suppressed tumor growth”.

(Values after patent US11117888B2, “Irreversible inhibitors of pyruvate kinase M2 and the use thereof” (China Medical University, priority 2020, dated 2021).)
